Like-named read-outs stand apart in the source and are kept apart here.
Tests used:
[1] = tested on: HCV subgenomic replicon in Huh-7 cells; assay: Replicon Assay (Example B), luciferase readout EC50; assay type: cell-based
Method: The activities of compounds of the invention against HCV in a cellular environment were analysed using a replicon assay as described below.
(§1) Thus, Huh-7 cells persistently infected with an HCV-RNA construct (Bartenschlager, R. Hepatitis C replicons: potential role for drug development. Nature Rev. Drug Discov. 1, 911-916 (2002)) comprising: 5′ and 3′ non-translated regions (NTR); the non-structural genes NS3 to NS5b; as well as the G418 drug resistance gene, neomycin, (for selection of cells carrying HCV replicon RNA) fused to the firefly Luciferase reporter gene (pFKI3889Iuc-ubi-neo/NS3-3′/ET) were used to determine the cell based antiviral activity of compounds using luciferase activity as an indirect readout of HCV RNA load. In this assay […] huh-7 cells persistently infected with the HCV subgenomic replicon construct above were plated/well in a 96 well tissue culture plate. The cells were allowed to attach overnight in DMEM medium supplemented with 10% FBS 1% NEAA, and 250 μg/ml gentamicin. The following day the medium was replaced with 200 μl/well of fresh medium as described above lacking gentamicin. Semilog dilutions of compounds in medium were then added to triplicate wells (non-edge) of the cultured cells to give a 0.1% DMSO final concentration. Plates were then incubated at 37° C. in an atmosphere of 5% CO2 and air for 72 h. […] The plate was then read at 535 nm (excitation) and 590 nm (emission) on a SpectraMax Gemini reader (Molecular Devices) to determine the number of viable cells by measuring the conversion of rezasurin (Alamar blue) to resorufin in response to mitochondrial activity. In order to determine the antiviral effect of these compounds EC50 values were determined by measuring the luciferase activity of the cells. Alamar blue solution was removed from the wells and replaced with 100 μl/well of medium along with 100 μl/well of Bright-Glo reagent and incubated at room temperature for 5 minutes before transferring 100 μl/well to a white bottom 96 well plate to read in a luminometer as described in the Bright-Glo Luciferase Assay System protocol (promega).

full length NS3/4a = full length NS3/4a (Hepatitis C virus genotype 1b (isolate BK) (HCV), UniProt P26663); assay: NS3 Protease Assay (Example A), FRET-based; assay type: biochemical
Method in brief: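 Initial rates were taken from fluorescence progress curves over 30 min at room temperature, and IC50 was fitted across replicates. In-house full-length NS3/4a cleaved a FRET peptide (5-FAMsp/QXL520) from the NS4A/B site. Medium: 50 mM Tris pH8, 20 mM DTT, 1% CHAPS, 10% glycerol, 5% DMSO.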

[2] = Replicon Assay (Example B), Alamar Blue cytotoxicity CC50; assay type: cell-based; settings: human, lower value of the cell pair
Excerpt: as §1

[3] = HCV NS3 protease assay, full length NS3/4a, read-out: Assay A IC50 (μM) average
[4] = read-out: IC50 against the protease activity of the full length NS3/4a
[5] = Hepatitis C virus, Huh-7, replicon assay, luciferase readout, upper value of the cell pair, read-out: Assay B EC50

full length NS3/4a, sequence (P26663 1027-1657): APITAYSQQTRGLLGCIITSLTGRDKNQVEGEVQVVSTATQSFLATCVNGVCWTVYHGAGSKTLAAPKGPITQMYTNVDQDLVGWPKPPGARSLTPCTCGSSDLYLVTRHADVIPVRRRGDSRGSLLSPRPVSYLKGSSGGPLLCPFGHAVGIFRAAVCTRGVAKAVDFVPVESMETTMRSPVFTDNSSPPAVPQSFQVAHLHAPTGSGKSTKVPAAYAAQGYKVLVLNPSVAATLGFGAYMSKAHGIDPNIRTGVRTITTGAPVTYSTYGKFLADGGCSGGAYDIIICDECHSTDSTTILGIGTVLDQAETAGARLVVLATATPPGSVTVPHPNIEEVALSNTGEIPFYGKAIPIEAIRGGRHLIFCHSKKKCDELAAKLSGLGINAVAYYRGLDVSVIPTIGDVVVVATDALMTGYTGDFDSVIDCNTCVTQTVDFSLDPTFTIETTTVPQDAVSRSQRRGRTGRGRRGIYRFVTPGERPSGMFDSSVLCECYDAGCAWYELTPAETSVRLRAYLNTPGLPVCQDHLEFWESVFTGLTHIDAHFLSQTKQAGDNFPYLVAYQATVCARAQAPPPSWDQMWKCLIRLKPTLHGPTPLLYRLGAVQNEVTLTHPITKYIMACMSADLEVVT

## CCC(NC1CCCC1C(N)=O)c1ccc(Cl)c(C(=O)c2ccc(N)nc2)c1F (racemic) [Example 161, 2-{[1-{3-[(6-aminopyridin-3-yl)carbonyl]-4-chloro-2-fluorophenyl}propyl]amino} cyclopentane-1-carboxamide]
[1]; replicon assay, luciferase readout, upper value of the cell pair, read-out: Assay B EC50
  EC50: > 10000 nM

## CCC(NC1CCCC1C(N)=O)c1ccc(Cl)c(C(=O)c2ccc(N)nc2)c1F (single isomer, unassigned) [Example 125, 2-{[1-{3-[(6-aminopyridin-3-yl)carbonyl]-4-chloro-2-fluorophenyl}propyl]amino} cyclopentane-1-carboxamide]
Full length NS3/4a; [3]
  IC50: 0.29 µM
Full length NS3/4a; [4]
  IC50: < 1 µM
[2]
  CC50 at 72 h: > 3000 nM

## CC[C@@H](N)c1ccc(Cl)c(C(=O)c2ccccc2)c1F [Example 4, (1R)-1-(3-benzoyl-4-chloro-2-fluorophenyl)propan-1-amine]
Full length NS3/4a; [3]
  IC50: 0.089 µM
Full length NS3/4a; [4]
  IC50: < 1 µM
[1]; [5]
  EC50: > 10000 nM
[2]
  CC50 at 72 h: > 10000 nM

## CC[C@@H](N)c1ccc(Cl)c(C(=O)c2ccc(C#N)cc2)c1F [Example 9, 4-({3-[(1R)-1-aminopropyl]-6-chloro-2-fluorophenyl}carbonyl)-benzonitrile]
Full length NS3/4a; [3]
  IC50: 0.076 µM
Full length NS3/4a; [4]
  IC50: < 1 µM
[1]; [5]
  EC50: > 3000 nM
[2]
  CC50 at 72 h: > 3000 nM

## N[C@@H](c1ccc(Cl)c(C(=O)c2ccccc2)c1F)C1CC1 [Example 11, (R)-(3-benzoyl-4-chloro-2-fluorophenyl)-(cyclopropyl)-methanamine]
Full length NS3/4a; [3]
  IC50: 0.13 µM
Full length NS3/4a; [4]
  IC50: < 1 µM
[1]; [5]
  EC50: > 3000 nM
[2]
  CC50 at 72 h: > 3000 nM

## CCOC(=O)c1cnn(-c2ccc(C(=O)c3c(Cl)ccc([C@H](N)CC)c3F)cn2)c1 [Example 41, ethyl 1-[5-({3-[(1R)-1-aminopropyl]-6-chloro-2-fluorophenyl}carbonyl)pyridin-2-yl]-1H-pyrazole-4-carboxylate]
Full length NS3/4a; [3]
  IC50: 1.6 µM
Full length NS3/4a; [4]
  IC50: 1 to 5 µM
[1]; [5]
  EC50: 9 nM

## COc1cc(C(=O)c2c(Cl)ccc([C@H](N)C3CC3)c2F)ccc1C#N [Example 69, 4-({3-[(R)-amino(cyclopropyl)methyl]-6-chloro-2-fluorophenyl}carbonyl)-2-methoxybenzonitrile]
Full length NS3/4a; [3]
  IC50: 0.052 µM
[1]; [5]
  EC50: 33 nM
[2]
  CC50 at 72 h: > 1000 nM

## CC[C@@H](N)c1ccc(Cl)c(C(=O)c2ccc(N)c(C#N)c2)c1F [Example 72, 2-Amino-5-[3-((R)-1-amino-propyl)-6-chloro-2-fluoro-benzoyl]-benzonitrile]
[1]; [5]
  EC50: 32 nM

## CC[C@@H](N)c1ccc(Cl)c(C(=O)c2ccc(N)c(Cl)c2)c1F [Example 74, (4-Amino-3-chloro-phenyl)-[3-((R)-1-amino-propyl)-6-chloro-2-fluoro-phenyl]-methanone]
[1]; [5]
  EC50: 32 nM

## CC[C@@H](N[C@@H](C)CC(N)=O)c1ccc(Cl)c(C(=O)c2ccc(N)nc2)c1F [Example 81, (3S)-3-{[(1R)-1-{3-[(6-aminopyridin-3-yl)carbonyl]-4-chloro-2-fluorophenyl}propyl]-amino}butanamide]
Full length NS3/4a; [3]
  IC50: 0.22 µM
[1]; Hepatitis C virus, Huh-7, pre-determined EC50 used to set concentrations in combination studies, read-out: EC50 (replicon)
  EC50: 20 nM
[1]; [5]
  EC50: 18 nM
[2]
  CC50 at 72 h: > 3000 nM

## CC[C@@H](N[C@@H](C)CC(=O)NCCN)c1ccc(Cl)c(C(=O)c2ccccc2)c1F [Example 88, (3S)-N-(2-aminoethyl)-3-{[(1R)-1-(3-benzoyl-4-chloro-2-fluorophenyl)propyl]-amino}butanamide]
Full length NS3/4a
  inhibition at 0.01 µM: 52%
[1]; [5]
  EC50: 45 nM
[2]
  CC50 at 72 h: > 3000 nM

## CC[C@@H](N[C@@H](C)CC(N)=O)c1ccc(Cl)c(C(=O)c2ccc(F)c(F)c2)c1F [Example 90, (3S)-3-{[(1R)-1-{4-chloro-3-[(3,4-difluorophenyl)carbonyl]-2-fluorophenyl}propyl]amino}-butanamide]
Full length NS3/4a; [3]
  IC50: 0.13 µM
[1]; [5]
  EC50: 380 nM
[2]
  CC50 at 72 h: > 3000 nM

## CC[C@@H](N[C@@H](C)CC(N)=O)c1ccc(Cl)c(C(=O)c2ccc(C#N)cc2)c1F [Example 91, (3S)-3-{[(1R)-1-{4-chloro-3-[(4-cyanophenyl)carbonyl]-2-fluorophenyl}propyl]amino}-butanamide]
Full length NS3/4a; [3]
  IC50: 0.066 µM
[1]; [5]
  EC50: 1.2 nM
[2]
  CC50 at 72 h: > 10000 nM

## CC[C@@H](N[C@@H](C)CC(N)=O)c1ccc(Cl)c(C(=O)c2cccnc2)c1F [Example 93, (3S)-3-{[(1R)-1-{4-chloro-2-fluoro-3-[(pyridin-3-yl)carbonyl]phenyl}propyl]-amino}butanamide]
Full length NS3/4a; [3]
  IC50: 0.14 µM
[1]; [5]
  EC50: 510 nM
[2]
  CC50 at 72 h: > 3000 nM

## CC[C@@H](N[C@@H](C)CC(N)=O)c1ccc(Cl)c(C(=O)c2cccc(F)c2)c1F [Example 95, (3S)-3-{[(1R)-1-{4-chloro-2-fluoro-3-[(3-fluorophenyl)-carbonyl]-phenyl}propyl]-amino}-butanamide]
Full length NS3/4a; [3]
  IC50: 0.085 µM
[1]; [5]
  EC50: 41 nM
[2]
  CC50 at 72 h: > 3000 nM

## CC[C@@H](N[C@@H](C)CC(N)=O)c1ccc(Cl)c(C(=O)c2ccc(F)cc2)c1F [Example 97, (3S)-3-{[(1R)-1-{4-chloro-2-fluoro-3-[(4-fluorophenyl)-carbonyl]-phenyl}propyl]-amino}-butanamide]
Full length NS3/4a; [3]
  IC50: 0.047 µM
[1]; [5]
  EC50: 19 nM
[2]
  CC50 at 72 h: > 3000 nM

## CC[C@@H](N[C@@H](C)CC(N)=O)c1ccc(Cl)c(C(=O)c2cccc(C#N)c2)c1F [Example 101, (3S)-3-{[(1R)-1-{4-chloro-3-[(3-cyanophenyl)carbonyl]-2-fluorophenyl}propyl]amino}-butanamide]
Full length NS3/4a; [3]
  IC50: 0.11 µM
Full length NS3/4a; [4]
  IC50: < 1 µM
[1]; [5]
  EC50: 160 nM
[2]
  CC50 at 72 h: > 3000 nM

## C[C@@H](CC(N)=O)N[C@@H](c1ccc(Cl)c(C(=O)c2ccccc2)c1F)C1CC1 [Example 103, (3S)-3-{[(R)-(3-benzoyl-4-chloro-2-fluorophenyl)-(cyclopropyl)-methyl]-amino}-butanamide]
Full length NS3/4a; [3]
  IC50: 0.077 µM
Full length NS3/4a; [4]
  IC50: < 1 µM
[1]; [5]
  EC50: 5.8 nM
[2]
  CC50 at 72 h: > 3000 nM

## CC[C@@H](N[C@@H](C)CC(N)=O)c1ccc(Cl)c(C(=O)c2ccccn2)c1F [Example 104, (3S)-3-{[(1R)-1-{4-chloro-2-fluoro-3-[(pyridin-2-yl)carbonyl]phenyl}-propyl]amino}butanamide]
Full length NS3/4a; [3]
  IC50: 0.24 µM
Full length NS3/4a; [4]
  IC50: < 1 µM
[1]; [5]
  EC50: 390 nM
[2]
  CC50 at 72 h: > 3000 nM

## CC[C@@H](N[C@@H](C)CC(N)=O)c1ccc(Cl)c(C(=O)c2ccncc2)c1F [Example 106, (3S)-3-{[(1R)-1-{4-chloro-2-fluoro-3-[(pyridin-4-yl)carbonyl]phenyl}-propyl]amino}butanamide]
Full length NS3/4a; [3]
  IC50: 0.11 µM
Full length NS3/4a; [4]
  IC50: < 1 µM
[1]; [5]
  EC50: 57 nM
[2]
  CC50 at 72 h: > 3000 nM

## CC[C@@H](N[C@@H](C)CC(N)=O)c1ccc(Cl)c(C(=O)c2ccns2)c1F [Example 108, (3S)-3-{[(1R)-1-{4-chloro-2-fluoro-3-[(1,2-thiazol-5-yl)carbonyl]phenyl}propyl]-amino}butanamide]
Full length NS3/4a; [3]
  IC50: 0.07 µM
[1]; [5]
  EC50: 270 nM
[2]
  CC50 at 72 h: > 3000 nM

## [2H]C([2H])([2H])C([2H])([2H])[C@@H](N[C@@H](C)CC(N)=O)c1ccc(Cl)c(C(=O)c2ccc(N)c(C)c2)c1F [Example 268, (3S)-3-{[(1R)-1-{3-[(4-amino-3-methylphenyl)carbonyl]-4-chloro-2-fluorophenyl}(2,2,3,3,3-deutero)propyl]amino}-butanamide]
Full length NS3/4a; [3]
  IC50: 0.19 µM
Full length NS3/4a; [4]
  IC50: < 1 µM
[1]; [5]
  EC50: 16 nM

## C[C@@H](CC(=O)NCCN)NCc1ccc(Cl)c(C(=O)c2ccccc2)c1F [Example 282, (3S)—N-(2-aminoethyl)-3-{[(3-benzoyl-4-chloro-2-fluorophenyl)methyl]-amino}butanamide]
Full length NS3/4a
  inhibition at 0.01 µM: 65%
[1]; [5]
  EC50: 3200 nM
